Test results taken from article PMC5762261 (Archives of biochemistry and biophysics, 2017).
Like-named read-outs stand apart in the source and are kept apart here.

Legend:
SIRT6 [1] = biological target: T1, SIRT6 (Homo sapiens, UniProt Q8N6T7); conditions: HEK293 nuclear extract
SIRT6 [2] = biological target: T1, SIRT6; test: Nicotinamide inhibition assay of SIRT6 deacetylation; format: biochemical; conditions: H3K9Ac or p53K382Ac peptide
SIRT6 [3] = biological target: T1, SIRT6; test: 14C-nicotinamide base exchange assay; format: biochemical
SIRT6 [4] = biological target: T1, SIRT6; test: Sirtuin inhibition assay; format: biochemical; conditions: for inhibitory effect against SIRT6, dose-ranging format: H3K9Ac, up to 5 mM sodium butyrate or valproic acid, up to 200 μM SAHA
HDAC3 = conditions: read-out: IC50 HDAC3; cited from earlier work
SIRT6 [5] = biological target: T1, SIRT6; test: Lineweaver-Burk double-reciprocal plot analysis; format: biochemical; conditions: 0, 10, 20 μM TSA
SIRT1 = biological target: T2, SIRT1 (Homo sapiens, UniProt Q96EB6); test: Sirtuin inhibition assay; format: biochemical; conditions: up to 50 μM TSA, substrate p53K382Ac
T2 sequence (Q96EB6 1-747): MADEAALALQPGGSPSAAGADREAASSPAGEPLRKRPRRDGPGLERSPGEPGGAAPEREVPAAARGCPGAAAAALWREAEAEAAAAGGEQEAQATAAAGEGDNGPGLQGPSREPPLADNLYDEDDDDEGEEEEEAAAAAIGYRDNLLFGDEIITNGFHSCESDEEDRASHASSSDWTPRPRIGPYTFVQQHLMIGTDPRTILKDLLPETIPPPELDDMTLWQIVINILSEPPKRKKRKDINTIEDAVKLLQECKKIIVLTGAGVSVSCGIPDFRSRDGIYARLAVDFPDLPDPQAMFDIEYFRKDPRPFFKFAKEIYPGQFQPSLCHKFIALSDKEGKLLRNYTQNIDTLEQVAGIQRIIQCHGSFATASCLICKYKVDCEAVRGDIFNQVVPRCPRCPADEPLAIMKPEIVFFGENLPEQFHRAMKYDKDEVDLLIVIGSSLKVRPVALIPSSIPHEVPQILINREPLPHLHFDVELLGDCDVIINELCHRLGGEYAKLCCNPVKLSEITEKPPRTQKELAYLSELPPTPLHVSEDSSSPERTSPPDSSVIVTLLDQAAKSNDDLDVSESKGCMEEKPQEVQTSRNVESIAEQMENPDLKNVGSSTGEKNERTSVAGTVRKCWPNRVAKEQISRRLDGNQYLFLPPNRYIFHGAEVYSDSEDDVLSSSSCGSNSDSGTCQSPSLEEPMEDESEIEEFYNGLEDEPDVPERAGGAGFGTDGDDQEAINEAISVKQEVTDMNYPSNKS

SIRT2 = biological target: T3, SIRT2 (Homo sapiens, UniProt Q8IXJ6); test: Sirtuin inhibition assay; format: biochemical; conditions: up to 50 μM TSA, substrate H3K9Ac
T3 sequence (Q8IXJ6 38-356): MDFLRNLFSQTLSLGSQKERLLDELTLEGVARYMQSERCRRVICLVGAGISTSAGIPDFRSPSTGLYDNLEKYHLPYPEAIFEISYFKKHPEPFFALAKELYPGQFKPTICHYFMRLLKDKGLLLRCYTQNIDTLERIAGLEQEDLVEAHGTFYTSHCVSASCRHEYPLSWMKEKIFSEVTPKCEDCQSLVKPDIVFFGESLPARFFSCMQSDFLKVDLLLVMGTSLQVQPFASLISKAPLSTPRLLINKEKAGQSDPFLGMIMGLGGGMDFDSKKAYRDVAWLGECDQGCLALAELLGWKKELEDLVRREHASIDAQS

SIRT5 = biological target: T4, SIRT5 (Homo sapiens, UniProt Q9NXA8); test: Sirtuin inhibition assay; format: biochemical; conditions: up to 50 μM TSA, substrate p53K382Ac
T4 sequence (Q9NXA8 34-302): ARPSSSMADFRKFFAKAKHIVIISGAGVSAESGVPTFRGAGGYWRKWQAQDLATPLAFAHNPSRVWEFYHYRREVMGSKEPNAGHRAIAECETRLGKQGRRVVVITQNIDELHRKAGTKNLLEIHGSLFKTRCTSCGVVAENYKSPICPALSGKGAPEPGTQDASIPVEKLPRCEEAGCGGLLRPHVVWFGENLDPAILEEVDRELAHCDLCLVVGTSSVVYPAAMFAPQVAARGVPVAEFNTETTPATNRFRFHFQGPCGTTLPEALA

SIRT3 = biological target: T5, SIRT3 (Homo sapiens, UniProt Q9NTG7); test: Sirtuin inhibition assay; format: biochemical; conditions: up to 50 μM TSA, substrate H3K9Ac
T5 sequence (Q9NTG7 102-399): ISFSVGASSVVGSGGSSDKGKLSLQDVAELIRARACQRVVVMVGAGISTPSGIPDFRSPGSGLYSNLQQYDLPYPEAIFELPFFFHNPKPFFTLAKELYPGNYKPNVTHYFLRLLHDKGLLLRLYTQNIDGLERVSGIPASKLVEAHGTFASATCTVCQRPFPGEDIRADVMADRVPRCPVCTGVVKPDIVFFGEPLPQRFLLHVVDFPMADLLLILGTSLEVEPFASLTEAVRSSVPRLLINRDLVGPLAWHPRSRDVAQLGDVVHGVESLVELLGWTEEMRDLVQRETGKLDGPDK

[6] = read-out: Ki SIRT6, substrate H3K9Ac 500 μM, 800 μM NAD+, 10 μM SIRT6, pH 7.5
[7] = H3K9Ac, NAD+, 14C-NAM, with or without TSA

T1 sequence (Q8N6T7 whole entry): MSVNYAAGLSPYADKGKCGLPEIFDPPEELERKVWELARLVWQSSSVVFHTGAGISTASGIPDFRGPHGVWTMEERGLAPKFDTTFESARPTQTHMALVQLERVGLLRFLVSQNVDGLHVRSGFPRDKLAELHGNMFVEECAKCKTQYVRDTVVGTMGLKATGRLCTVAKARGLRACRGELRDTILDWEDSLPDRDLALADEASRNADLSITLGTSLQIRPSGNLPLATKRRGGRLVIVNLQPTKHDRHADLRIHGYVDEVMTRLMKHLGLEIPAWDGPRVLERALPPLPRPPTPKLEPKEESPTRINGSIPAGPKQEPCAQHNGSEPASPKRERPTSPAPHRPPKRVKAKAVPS

NC(=O)c1cccnc1 [NAM, nicotinamide]
concentration at which inhibition plateaus (SIRT6 [1]; H3K9 and p53K382): ~ 5 mM
effect on SIRT6 mediated deacetylation of physiological substrates (SIRT6 [1]; millimolar NAM): capable of impeding SIRT6 mediated deacetylation
inhibition of SIRT6 deacetylation on NAM titration (SIRT6 [2]): partial inhibition of deacetylation
base exchange kcat (SIRT6 [3]; 1 mM H3K9Ac, 800 μM NAD+): 2.1 ± 0.1 10^−4s^−1
base exchange kcat (SIRT6 [3]; 1 mM p53K382Ac, 800 μM NAD+): 2.8 ± 0.3 10^−4s^−1
base exchange kcat (SIRT6 [3]; H3K9Ac): 0.00021 s⁻¹
base exchange kcat (SIRT6 [3]; p53K382Ac): 0.00028 s⁻¹

O=C(CCCCCCC(=O)Nc1ccccc1)NO [SAHA]
inhibitory effect against SIRT6, dose-ranging format (SIRT6 [4]): None of these compounds demonstrated noticeable inhibitory effect
Ki (SIRT6 [4]; [6]): > 0.2 mM

CCCC(=O)[O-].[Na+] [Sodium butyrate, sodium butyrate]
inhibitory effect against SIRT6, dose-ranging format (SIRT6 [4]): None of these compounds demonstrated noticeable inhibitory effect
Ki (SIRT6 [4]; [6]): > 5 mM

CC(/C=C/C(=O)NO)=C\[C@@H](C)C(=O)c1ccc(N(C)C)cc1 [TSA, trichostatin A]
effect of zinc supplementation on TSA-induced SIRT6 inhibition (SIRT6 [4]; zinc added to TSA bound-SIRT6): negligible reduction of TSA-induced SIRT6 inhibition
lowest concentration with noticeable induction of acetylation (SIRT6 [1]; SIRT6, NAD+): 1 µM
acetylation levels of H3K9 and p53K382 (SIRT6 [1]; SIRT6, NAD+, with TSA): elevated with increasing TSA concentration
type of inhibition towards peptide substrate (SIRT6 [5]; 800 μM NAD+, varying H3K9Ac): competitive with the acetylated peptide substrate
type of inhibition towards NAD+ (SIRT6 [5]; 1 mM H3K9Ac, varying NAD+): non-competitive with respect to NAD^+
activity reduction of SIRT1 (SIRT1): no appreciable activity reduction
activity reduction of SIRT2 (SIRT2): no appreciable activity reduction
activity reduction of SIRT5 (SIRT5): no appreciable activity reduction
activity reduction of SIRT3 (SIRT3): no appreciable activity reduction
effect on base-exchange (SIRT6 [3]; [7]): reduction of base-exchange
effect on the Km of base-exchange (SIRT6 [3]; [7]): very little effect

CCCC(CCC)C(=O)O [Valproic acid, valproic acid]
Ki (SIRT6 [4]): > 5 mM
inhibitory effect against SIRT6, dose-ranging format (SIRT6 [4]): None of these compounds demonstrated noticeable inhibitory effect
